Results taken from the NIST ThermoML archive (doi:10.1021/je050520f).
Numbers after ± are expanded uncertainties. Values belong to the compound of their own block, whether it stands above or below them.

Experiments:
[1] = refractive index (Na D-line) (dimensionless); settings: 101.33 kPa, Liquid
[2] = 101.33 kPa, Liquid

refractive index ([1]; 298.15 K, Abbe refractometer): 1.3853 ± 0.0003
mass density ([2]; 298.15 K): 679.43 ± 0.36 kg/m3
SMILES: CCCCCCC [heptane]

refractive index ([1]; 298.15 K): 1.3946 ± 0.0007
mass density ([2]; 298.15 K): 698.49 ± 0.31 kg/m3
SMILES: CCCCCCCC [octane]

refractive index ([1]; 298.15 K, Abbe refractometer): 1.4901 ± 0.0006
mass density ([2]; 298.15 K): 860.79 ± 0.28 kg/m3
SMILES: CCCc1ccccc1 [propylbenzene]

Further lines, the compound ahead of its results:

SMILES: NC1CCCCC1 [cyclohexylamine]
refractive index ([1]; 288.15 K, Abbe refractometer): 1.4624 ± 0.0005
mass density ([2]; 303.15 K): 858.2 ± 0.2 kg/m3

SMILES: Cc1ccccc1 [toluene]
refractive index ([1]; 293.15 K, Abbe refractometer): 1.496 ± 0.0006
mass density ([2]; 293.15 K): 866.78 ± 0.19 kg/m3

SMILES: O [water]
refractive index ([1]; 293.15 K, Abbe refractometer): 1.3336 ± 0.0005
